ChEMBL document CHEMBL3885881, “DrugMatrix”

Organism: Rattus norvegicus
Assay: DrugMatrix - Regimen: Daily Repeat
Format: toxicity, organism-based, Sprague-Dawley
Design: regimen Daily Repeat, gender Male, age 6-8 weeks
Conditions: in vivo, po, route oral GAVAGE, vehicle 100 % WATER; for ABSOLUTE BASOPHIL / ABSOLUTE EOSINOPHIL / ABSOLUTE LYMPHOCYTE / ABSOLUTE MONOCYTE / ABSOLUTE SEGMENTED NEUTROPHIL / BASOPHIL / EOSINOPHIL / ERYTHROCYTE COUNT / HEMATOCRIT / HEMOGLOBIN / LEUKOCYTE COUNT / LYMPHOCYTE / MEAN CORPUSCULAR HEMOGLOBIN / MEAN CORPUSCULAR HEMOGLOBIN CONCENTRATION / MEAN CORPUSCULAR VOLUME / MONOCYTE / NEUTROPHIL / NUCLEATED RED BLOOD CELLS / PLATELET COUNT: tissue Blood; for ALANINE AMINOTRANSFERASE / ALBUMIN / ALKALINE PHOSPHATASE / ASPARTATE AMINOTRANSFERASE / BLOOD UREA NITROGEN / CARBON DIOXIDE / CHLORIDE / CHOLESTEROL / CREATINE PHOSPHOKINASE / CREATININE / GLUCOSE / LACTATE DEHYDROGENASE / LIPASE / PHOSPHORUS / POTASSIUM / SODIUM / TOTAL BILIRUBIN / TOTAL PROTEIN / URIC ACID: tissue Plasma
[1] = 0 mg/kg, 72 h, dose level Control, time 3 day
[2] = 0 mg/kg, 120 h, dose level Control, time 5 day
[3] = 10 mg/kg, 72 h, dose level Low, time 3 day

## CCN(CC)CC#CCOC(=O)C(O)(c1ccccc1)C1CCCCC1 (centres undefined) [OXYBUTYNIN]
[1]
  ABSOLUTE BASOPHIL: 0 CELLS/uL
  ABSOLUTE EOSINOPHIL: 24 CELLS/uL
  ABSOLUTE LYMPHOCYTE: 13105 CELLS/uL
  ABSOLUTE MONOCYTE: 76 CELLS/uL
  ABSOLUTE SEGMENTED NEUTROPHIL: 2145 CELLS/uL
  BASOPHIL: 0%
  EOSINOPHIL: 0.17%
  ERYTHROCYTE COUNT: 5.81 x10E6/uL
  HEMATOCRIT: 35.6%
  HEMOGLOBIN: 13.72 G/DL
  LEUKOCYTE COUNT: 15.35 x10E3/uL
  LYMPHOCYTE: 85.5%
  MEAN CORPUSCULAR HEMOGLOBIN: 23.62 pg
  MEAN CORPUSCULAR HEMOGLOBIN CONCENTRATION: 38.55 G/DL
  MEAN CORPUSCULAR VOLUME: 61.23 fL
  MONOCYTE: 0.5%
  NEUTROPHIL: 13.83%
  NUCLEATED RED BLOOD CELLS: 0 /100WBC
  PLATELET COUNT: 1189.83 x10E3/uL
  ALANINE AMINOTRANSFERASE: 48.67 u/L
  ALBUMIN: 4.27 G/DL
  ALKALINE PHOSPHATASE: 335 u/L
  ASPARTATE AMINOTRANSFERASE: 86.5 u/L
  BLOOD UREA NITROGEN: 14.33 mg/dL
  CARBON DIOXIDE: 29.17 mmol/L
  CHLORIDE: 99.83 MEQ/L
  CHOLESTEROL: 71.83 mg/dL
  CREATINE PHOSPHOKINASE: 506.83 u/L
  CREATININE: 0.18 mg/dL
  GLUCOSE: 162.17 mg/dL
  LACTATE DEHYDROGENASE: 264.5 u/L
  LIPASE: 9.67 u/L
  PHOSPHORUS: 11.92 mg/dL
  POTASSIUM: 6.55 MEQ/L
  SODIUM: 141.53 MEQ/L
  TOTAL BILIRUBIN: 0.18 mg/dL
  TOTAL PROTEIN: 5.87 G/DL
  URIC ACID: 1.67 mg/dL
[2]
  ABSOLUTE BASOPHIL: 0 CELLS/uL
  ABSOLUTE EOSINOPHIL: 25.33 CELLS/uL
  ABSOLUTE LYMPHOCYTE: 15680 CELLS/uL
  ABSOLUTE MONOCYTE: 92.33 CELLS/uL
  ABSOLUTE SEGMENTED NEUTROPHIL: 2102.33 CELLS/uL
  BASOPHIL: 0%
  EOSINOPHIL: 0.17%
  ERYTHROCYTE COUNT: 6 x10E6/uL
  HEMATOCRIT: 35.55%
  HEMOGLOBIN: 14.12 G/DL
  LEUKOCYTE COUNT: 17.9 x10E3/uL
  LYMPHOCYTE: 87.33%
  MEAN CORPUSCULAR HEMOGLOBIN: 23.65 pg
  MEAN CORPUSCULAR HEMOGLOBIN CONCENTRATION: 39.77 G/DL
  MEAN CORPUSCULAR VOLUME: 59.52 fL
  MONOCYTE: 0.5%
  NEUTROPHIL: 12%
  NUCLEATED RED BLOOD CELLS: 0.17 /100WBC
  PLATELET COUNT: 1325.67 x10E3/uL
  ALANINE AMINOTRANSFERASE: 56.17 u/L
  ALBUMIN: 4.23 G/DL
  ALKALINE PHOSPHATASE: 371.5 u/L
  ASPARTATE AMINOTRANSFERASE: 91 u/L
  BLOOD UREA NITROGEN: 15.33 mg/dL
  CARBON DIOXIDE: 27.67 mmol/L
  CHLORIDE: 99.5 MEQ/L
  CHOLESTEROL: 66.5 mg/dL
  CREATINE PHOSPHOKINASE: 518.5 u/L
  CREATININE: 0.18 mg/dL
  GLUCOSE: 143.33 mg/dL
  LACTATE DEHYDROGENASE: 238.83 u/L
  LIPASE: 9.33 u/L
  PHOSPHORUS: 10.68 mg/dL
  POTASSIUM: 6.5 MEQ/L
  SODIUM: 141.88 MEQ/L
  TOTAL BILIRUBIN: 0.18 mg/dL
  TOTAL PROTEIN: 6 G/DL
  URIC ACID: 1.63 mg/dL
[3]
  ABSOLUTE BASOPHIL: 0 CELLS/uL
  ABSOLUTE EOSINOPHIL: 0 CELLS/uL
  ABSOLUTE LYMPHOCYTE: 11373.67 CELLS/uL
  ABSOLUTE MONOCYTE: 168.67 CELLS/uL
  ABSOLUTE SEGMENTED NEUTROPHIL: 2324.33 CELLS/uL
  BASOPHIL: 0%
  EOSINOPHIL: 0%
  ERYTHROCYTE COUNT: 5.85 x10E6/uL
  HEMATOCRIT: 35.5%
  HEMOGLOBIN: 13.87 G/DL
  LEUKOCYTE COUNT: 13.87 x10E3/uL
  LYMPHOCYTE: 82.33%
  MEAN CORPUSCULAR HEMOGLOBIN: 23.77 pg
  MEAN CORPUSCULAR HEMOGLOBIN CONCENTRATION: 39.1 G/DL
  MEAN CORPUSCULAR VOLUME: 60.83 fL
  MONOCYTE: 1.33%
  NEUTROPHIL: 16.33%
  NUCLEATED RED BLOOD CELLS: 0 /100WBC
  PLATELET COUNT: 1157.33 x10E3/uL
  ALANINE AMINOTRANSFERASE: 50 u/L
  ALBUMIN: 4.03 G/DL
  ALKALINE PHOSPHATASE: 314.33 u/L
  ASPARTATE AMINOTRANSFERASE: 86 u/L
  BLOOD UREA NITROGEN: 13.67 mg/dL
  CARBON DIOXIDE: 28.33 mmol/L
  CHLORIDE: 99.33 MEQ/L
  CHOLESTEROL: 57.67 mg/dL
  CREATINE PHOSPHOKINASE: 426.33 u/L
  CREATININE: 0.12 mg/dL
  GLUCOSE: 150.67 mg/dL
  LACTATE DEHYDROGENASE: 120 u/L
  LIPASE: 9 u/L
  PHOSPHORUS: 12.43 mg/dL
  POTASSIUM: 6.97 MEQ/L
  SODIUM: 141.47 MEQ/L
  TOTAL BILIRUBIN: 0.17 mg/dL
  TOTAL PROTEIN: 5.57 G/DL
  URIC ACID: 1.97 mg/dL
